From paper PMC6753678, “Fueling Open Innovation for Malaria Transmission-Blocking Drugs: Hundreds of Molecules Targeting Early Parasite Mosquito Stages” (Frontiers in Microbiology, 2019)
Read-outs that look alike come from different tables or passages of the source.

What was measured:
[1] = tested on: HepG2 cells; conditions: cited from earlier work
[2] = tested on: P. falciparum female gametocytes; set-up: method as in Miguel-Blanco et al 2017; conditions: TCAMS screen comparison; ref Miguel-Blanco et al 2017; read-out: Pf FGAA IC50; cited from earlier work
[3] = tested on: P. falciparum late stage (stages IV-V) gametocytes; assay: P. falciparum late stage gametocyte ATP depletion assay (Pf GC-ATP); conditions: 1: YES; 0: NO
[4] = tested on: HepG2 cells; assay: HepG2 cytotoxicity assay; conditions: HepG2 cytotoxicity unified across the three screens
Outline: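 Cells at 2,500 per well in MEM with 10% fetal bovine serum and 1% NEAA were exposed to test compounds for 48 h at 37°C, 5% CO2. Viability was read by fluorescence, with percent inhibition calculated against 50 μM doxorubicin (positive) and DMSO (negative) controls.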

[5] = tested on: P. falciparum late stage (stages IV-V) gametocytes; set-up: method as in Almela et al 2016; conditions: TCAMS screen comparison; ref Almela et al 2016; read-out: Pf GCT ATP IC50; cited from earlier work
[6] = tested on: P. falciparum female gametocytes; assay: P. falciparum female gametogenesis assay (Pf FGAA); conditions: 1: YES; 0: NO
[7] = value reported with the Pf FGAA screen, ref Miguel-Blanco et al 2017
[8] = value reported with the Pf GCT ATP screen, ref Almela et al 2016

| SMILES | HepG2 cytoxicity [1, 7] | HepG2 cytoxicity [1, 8] | IC50 [2] | Is compound selective in assay? Pf GC-ATP active? [3] | Unified cytotox [4] | IC50 [5] | Is compound selective in assay? Pf FGAA active? [6] |
| --- | --- | --- | --- | --- | --- | --- | --- |
| CC(CNC(=N)c1cccc(C(=N)NCC(C)Oc2cccc(C3CCCCC3)c2)n1)Oc1cccc(C2CCCCC2)c1.Cl (stereo not shown) [TCMDC-137455] | 2.16 µM | 3.53 µM | 1270 nM | 1 (1: YES) | 2.85 µM | 240 nM | 0 (0: NO) |
| Cl.Clc1ccc(OCCC2CCN(CCCCCCCN3CCC(CCOc4ccc(Cl)c(Cl)c4)CC3)CC2)cc1Cl [TCMDC-138967] | 1.64 µM | 2.6 µM | 520 nM | 0 (0: NO) | 2.12 µM | 470 nM | 0 (0: NO) |
| COc1ccc(Nc2nccc(-c3ccc4ccnc(NCCCCN)c4c3)n2)cc1 [TCMDC-136642] | 14.29 µM | >25 µM | 1510 nM | 1 (1: YES) | 14.29 µM | 330 nM | 0 (0: NO) |
| CCn1c(-c2nonc2N)nc2c(-c3cccc(NC(=O)Nc4cccc(Cl)c4)c3)ncc(OCCCN)c21.O=C(O)C(F)(F)F [TCMDC-136193] | 80.36 µM | 14.5 µM | 1180 nM | 1 (1: YES) | 47.43 µM | 2170 nM | 1 (1: YES) |
| Cc1ccc(C(=O)Nc2ccc(Nc3ccnc4cc(-c5ccccn5)ccc34)cc2O)cc1.Cl [TCMDC-138205] | 1.27 µM | 3.11 µM | 540 nM | 0 (0: NO) | 2.19 µM | 480 nM | 0 (0: NO) |
| CS(=O)(=O)O.FC(F)(F)COc1ccc(CCNCCCCNCCc2ccc(OCC(F)(F)F)c3ccccc23)c2ccccc12 [TCMDC-137282] | 1.66 µM | 3 µM | 200 nM | 1 (1: YES) | 2.33 µM | 26.7 nM | 1 (1: YES) |
| Br.C/C=C/C=C/C1=NCCc2cc(OCCC)ccc21 [TCMDC-137442] | 18.29 µM | 19 µM | 1300 nM | 1 (1: YES) | 18.64 µM | 750 nM | 1 (1: YES) |
| COc1cc2nc(N3CCC(CNC(=O)c4ccc(-c5ccc(-c6noc(C)n6)cc5)cc4)CC3)nc(N)c2cc1OC [TCMDC-138754] | 4.90 µM | 4.33 µM | 1050 nM | 1 (1: YES) | 4.61 µM | 110 nM | 0 (0: NO) |
| CC(C)(C)c1ccc(CN2CCC(CNC(=O)c3cc(-c4cccc(Cl)c4)cs3)C2)cc1.O=C(O)C(F)(F)F (stereo not shown) [TCMDC-134446] | 7.42 µM | 11.3 µM | 990 nM | 1 (1: YES) | 9.36 µM | 610 nM | 0 (0: NO) |
| Cc1n[nH]c2ccc(-c3ccc4nccc(N5CCC(N)CC5)c4c3)cc12.Cl [TCMDC-134315] | 6.88 µM | 11.66 µM | 2450 nM | 1 (1: YES) | 9.27 µM | 380 nM | 0 (0: NO) |
| Fc1ccc2[nH]c(-c3cccc(-c4ccc(CN5CCC(CCN6CCCCC6)CC5)cc4)c3)nc2c1.O=C(O)C(F)(F)F [TCMDC-133940] | 4.79 µM | 5.2 µM | 1880 nM | 1 (1: YES) | 4.99 µM | 430 nM | 0 (0: NO) |
| Cl.c1ccc2c(NCCCCCCCCNc3ccnc4ccccc34)ccnc2c1 [TCMDC-137751] | 1.15 µM | 3.74 µM | 1020 nM | 0 (0: NO) | 2.44 µM | 1080 nM | 0 (0: NO) |
| Cl.c1ccc2c(NCCCCCCCCCNc3ccnc4ccccc34)ccnc2c1 [TCMDC-137750] | 1.50 µM | 2.9 µM | 850 nM | 0 (0: NO) | 2.20 µM | 1030 nM | 0 (0: NO) |
| Cl.c1ccc2c(Nc3ccc(Cc4ccc(Nc5c6ccccc6nc6ccccc56)cc4)cc3)c3ccccc3nc2c1 [TCMDC-137354] | 3.85 µM | 4.49 µM | 1040 nM | 0 (0: NO) | 4.17 µM | 2300 nM | 0 (0: NO) |
| CC(C)(C)c1ccc(-c2cc3c(ccc4nc(N)nc(N)c43)[nH]2)cc1 [TCMDC-137977] | 1.86 µM | 3.26 µM | 770 nM | 0 (0: NO) | 2.56 µM | 550 nM | 0 (0: NO) |
| CN(C)CCN(C)Cc1cccc(-c2ccc3c(Nc4ccc(F)cc4Cl)ccnc3c2)c1 [TCMDC-138416] | 6.10 µM | 3.6 µM | 7020 nM | 1 (1: YES) | 4.85 µM | 480 nM | 0 (0: NO) |
| C=C[C@H]1CN(CCCCCCC)CC[C@H]1CCNc1ccnc2ccc(OC)cc12 [TCMDC-139204] | 2.24 µM | 3.4 µM | 1800 nM | 0 (0: NO) | 2.82 µM | 1080 nM | 0 (0: NO) |
| CC(C)COc1ccc2ccccc2c1CNCCCCCCNCc1c(OCC(C)C)ccc2ccccc12.CS(=O)(=O)O [TCMDC-137972] | 2.19 µM | 1.88 µM | 810 nM | 1 (1: YES) | 2.03 µM | 100 nM | 0 (0: NO) |
| COc1cc2ccccc2cc1CCNCCCCNCCc1cc2ccccc2cc1OC.CS(=O)(=O)O [TCMDC-137944] | 1.66 µM | 3.39 µM | 620 nM | 1 (1: YES) | 2.53 µM | 110 nM | 0 (0: NO) |
